Measured values: ChEMBL document CHEMBL1201862, “PubChem BioAssay data set” (2004)
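Assay format: 96-well plates, 48-hour exposure. Abbreviation: GI50, concentration required for 50% inhibition of growth.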 Calls of active or inactive are those of the source. Rule as the data show it: active = GI50 up to about 1.1 µM and inactive = higher.

Key:
Assay in all cases: DTP human tumour cell line panel, 48 h
RXF 393 = tested on: RXF 393
CAKI-1 = tested on: CAKI-1
SK-OV-3 = tested on: SK-OV-3
SN12C = tested on: SN12C
A549 = tested on: A549
SNB-19 = tested on: SNB-19
OVCAR-5 = tested on: OVCAR-5
NCI-H460 = tested on: NCI-H460
HL-60 = tested on: HL-60
OVCAR-8 = tested on: OVCAR-8
IGROV-1 = tested on: IGROV-1
CCRF-CEM = tested on: CCRF-CEM
KM12 = tested on: KM12
KM-20L2 = tested on: KM-20L2
786-0 = tested on: 786-0
SK-MEL-5 = tested on: SK-MEL-5
HCT-116 = tested on: HCT-116
TK-10 = tested on: TK-10

Measured: GI50

COC(=O)/C(C#N)=C1\CCC(OC)N1 (stereo not drawn)
inactive: RXF 393 47.2 µM | CAKI-1 > 100 µM | SK-OV-3 > 100 µM | SN12C > 100 µM | A549 > 100 µM | SNB-19 > 100 µM | OVCAR-5 > 100 µM | NCI-H460 > 100 µM | HL-60 > 100 µM | OVCAR-8 > 100 µM | IGROV-1 > 100 µM | CCRF-CEM > 100 µM | KM12 > 100 µM | KM-20L2 > 100 µM | 786-0 > 100 µM | SK-MEL-5 > 100 µM | HCT-116 > 100 µM | TK-10 > 100 µM

CC1=C(C(=O)Nc2ccc([N+](=O)[O-])cc2)C(c2ccccc2F)C(C(=O)Nc2ccc([N+](=O)[O-])cc2)=C(C)N1
inactive: RXF 393 6.75 µM | CAKI-1 18.2 µM | SK-OV-3 29.8 µM | SN12C 8.18 µM | A549 9.64 µM | SNB-19 21.1 µM | OVCAR-5 35.1 µM | NCI-H460 13.6 µM | HL-60 4.7 µM | OVCAR-8 21.7 µM | IGROV-1 12.8 µM | CCRF-CEM 7 µM | KM12 9.14 µM | KM-20L2 12.3 µM | 786-0 20.8 µM | SK-MEL-5 13.9 µM | HCT-116 5.13 µM | TK-10 23.7 µM

COC(=O)c1sc(=NC(=S)N2CCCCC2)sc1C(=O)OC
inactive: RXF 393 > 100 µM | CAKI-1 > 100 µM | SK-OV-3 > 100 µM | SN12C > 100 µM | SNB-19 > 100 µM | NCI-H460 6.38 µM | HL-60 > 100 µM | OVCAR-8 > 100 µM | IGROV-1 > 100 µM | CCRF-CEM 32.7 µM | KM12 91.4 µM | KM-20L2 > 100 µM | 786-0 > 100 µM | SK-MEL-5 80.9 µM | HCT-116 > 100 µM | TK-10 > 100 µM

Cn1cc(C(=O)c2ccccc2)cc(C(=O)c2ccccc2)c1=O
inactive: RXF 393 > 100 µM | CAKI-1 > 100 µM | SK-OV-3 > 100 µM | SN12C > 100 µM | A549 > 100 µM | SNB-19 > 100 µM | OVCAR-5 > 100 µM | NCI-H460 > 100 µM | HL-60 > 100 µM | OVCAR-8 > 100 µM | IGROV-1 > 100 µM | CCRF-CEM > 100 µM | KM12 > 100 µM | KM-20L2 > 100 µM | 786-0 > 100 µM | SK-MEL-5 > 100 µM | TK-10 > 100 µM

CCOP(=O)(OCC)C1=NC=CC=CC1n1c(-c2ccccc2)nn(CC)c1=O (stereo not drawn)
inactive: RXF 393 > 100 µM | CAKI-1 > 100 µM | SK-OV-3 > 100 µM | SN12C > 100 µM | A549 > 100 µM | SNB-19 > 100 µM | NCI-H460 > 100 µM | HL-60 > 100 µM | OVCAR-8 > 100 µM | IGROV-1 > 100 µM | CCRF-CEM > 100 µM | KM12 > 100 µM | KM-20L2 > 100 µM | 786-0 > 100 µM | SK-MEL-5 > 100 µM | HCT-116 > 100 µM | TK-10 > 100 µM

O=C1OC(=O)c2c1c(-c1ccccc1)nc1ccccc21
inactive: RXF 393 > 100 µM | CAKI-1 > 100 µM | SK-OV-3 > 100 µM | SN12C > 100 µM | A549 > 100 µM | SNB-19 > 100 µM | NCI-H460 > 100 µM | HL-60 > 100 µM | OVCAR-8 > 100 µM | IGROV-1 > 100 µM | CCRF-CEM > 100 µM | KM12 > 100 µM | KM-20L2 > 100 µM | 786-0 > 100 µM | SK-MEL-5 > 100 µM | HCT-116 > 100 µM | TK-10 > 100 µM

C=C(CCCCC)CN1CCCC1C(C)=O (stereo not drawn)
inactive: RXF 393 34.1 µM | CAKI-1 34.7 µM | SK-OV-3 31.2 µM | SN12C 29.1 µM | A549 32.9 µM | SNB-19 > 62.1 µM | OVCAR-5 22.2 µM | NCI-H460 29 µM | HL-60 4.32 µM | OVCAR-8 28.6 µM | IGROV-1 33.2 µM | CCRF-CEM 12.9 µM | KM12 33 µM | KM-20L2 29.4 µM | 786-0 35.5 µM | SK-MEL-5 17.9 µM | HCT-116 27.6 µM | TK-10 38.1 µM

CCC1CN2CCc3cc(OC)c(OC)cc3C2CC1CC1c2cc(OC)c(OC)cc2CCN1C(=O)CNC(=O)OC(C)(C)C (stereo not drawn)
inactive: RXF 393 17.5 µM | CAKI-1 21.7 µM | SK-OV-3 28.6 µM | SN12C 24.1 µM | A549 4.57 µM | SNB-19 13.9 µM | OVCAR-5 24.3 µM | NCI-H460 6.49 µM | HL-60 4.14 µM | OVCAR-8 5.64 µM | IGROV-1 19.5 µM | CCRF-CEM 3.34 µM | KM12 3.31 µM | KM-20L2 5.08 µM | 786-0 4.08 µM | SK-MEL-5 6 µM | TK-10 28.6 µM
